Assay results published in patent US20250026743A1, “HETEROARYL-LINKED ANALOGS AS MGLU5 NEGATIVE ALLOSTERIC MODULATORS AND METHODS OF MAKING AND USING THE SAME” (Vanderbilt University, priority 2021, published 2025).
Like-named read-outs stand apart in the source and are kept apart here.

Molecular target: T1, hmGlu5 (Homo sapiens, UniProt P41594)
T1 construct: expressed in transfected cells; host or cells: HEK 293A
Assay: mGlu5 Ca2+ flux assay in HEK 293A cells (negative allosteric modulation of glutamate EC80 response)
Format: cell-based
Conditions: for remaining activity at 30 µM: HEK293-A, read-out: hmGlu5 NAM Emin (%); for IC50: HEK 293A cells, Ca2+ flux, glutamate EC80, >10,000 = decrease without plateau, read-out: hmGlu5 NAM IC50
Experimental: HEK 293A cells stably expressing either rat or human mGlu5 were plated in black-walled, clear-bottomed, poly-D-lysine coated 384-well plates in 20 μL of assay medium (DMEM containing 10% dialyzed FBS, 20 mM HEPES, 100 units/mL penicillin/streptomycin plus 250 ng/mL Fungizone, and 1 mM sodium pyruvate) at a density of 20K cells/well. The cells were grown overnight at 37° C. in the presence of 5% CO2. The next day, medium was removed and the cells incubated with 20 μL of 2.3 μM Fluo-4, AM prepared as a 2.3 mM stock in DMSO and mixed in a 1:1 ratio with 10% (w/v) pluronic acid F-127 and diluted in assay buffer (Hank's balanced salt solution, 20 mM HEPES, and 2.5 mM probenecid) for 45 minutes at 37° C. Dye was removed, 20 μL of assay buffer was added, and the plate was incubated for 5 minutes at room temperature.
Ca^2+ flux was measured using the Functional Drug Screening System (FDSS7000, Hamamatsu, Japan). After establishment of a fluorescence baseline for about 3 seconds, the compounds of the present invention were added to the cells, and the response in cells was measured. 2.3 minutes later an EC20 concentration of the mGlu5 receptor agonist glutamate was added to the cells, and the response of the cells was measured for 1.9 minutes; an EC80 concentration of agonist was added and readings taken for an additional 1.7 minutes. All test compounds were dissolved and diluted to a concentration of 10 mM in 100% DMSO. Compounds were then serially diluted 1:3 in DMSO into 10 point concentration response curves, transferred to daughter plates, and further diluted into assay buffer to a 2× stock. Calcium fluorescence measures were recorded as fold over basal fluorescence; raw data was then normalized to the maximal response to glutamate. Antagonism of the agonist response of the mGlu5 receptor in the present invention was observed as a decrease in response to nearly maximal concentrations of glutamate in the presence of compound compared to the response to glutamate in the absence of compound.
The raw data file containing all time points was used as the data source in the analysis template. This was saved by the FDSS as a tab-delimited text file. Data were normalized using a static ratio function (F/F0) for each measurement of the total 360 values per well divided by each well's initial value. Data were then reduced to peak amplitudes (Max−Initial Min) using a time range that starts approximately 3 seconds prior to the glutamate EC20/EC80 addition and continues for approximately 90-120 seconds. This is sufficient time to capture the peak amplitude of the cellular calcium response. Individual amplitudes were expressed as % EMax by multiplying each amplitude by 100 and then dividing the product by the mean of the amplitudes derived from the glutamate ECMax-treated wells. IC50 values for test compounds were generated by fitting the normalized values versus the log of the test compound concentration (in mol/L) using a 4 parameter logistic equation where none of the parameters were fixed. Each of the three values collected at each concentration of test compound were weighted evenly.
For NAMs with a CRC that plateaus above 10% Glu Max, the IC50 values are reported, the compound is designated a “partial NAM” and the % Glu Max is reported. […] Compounds without measurable activity are designated as “>30,000 nM” since the top concentration of compound tested in the assay is 30 μM. […]

T1 sequence (P41594 21-1212): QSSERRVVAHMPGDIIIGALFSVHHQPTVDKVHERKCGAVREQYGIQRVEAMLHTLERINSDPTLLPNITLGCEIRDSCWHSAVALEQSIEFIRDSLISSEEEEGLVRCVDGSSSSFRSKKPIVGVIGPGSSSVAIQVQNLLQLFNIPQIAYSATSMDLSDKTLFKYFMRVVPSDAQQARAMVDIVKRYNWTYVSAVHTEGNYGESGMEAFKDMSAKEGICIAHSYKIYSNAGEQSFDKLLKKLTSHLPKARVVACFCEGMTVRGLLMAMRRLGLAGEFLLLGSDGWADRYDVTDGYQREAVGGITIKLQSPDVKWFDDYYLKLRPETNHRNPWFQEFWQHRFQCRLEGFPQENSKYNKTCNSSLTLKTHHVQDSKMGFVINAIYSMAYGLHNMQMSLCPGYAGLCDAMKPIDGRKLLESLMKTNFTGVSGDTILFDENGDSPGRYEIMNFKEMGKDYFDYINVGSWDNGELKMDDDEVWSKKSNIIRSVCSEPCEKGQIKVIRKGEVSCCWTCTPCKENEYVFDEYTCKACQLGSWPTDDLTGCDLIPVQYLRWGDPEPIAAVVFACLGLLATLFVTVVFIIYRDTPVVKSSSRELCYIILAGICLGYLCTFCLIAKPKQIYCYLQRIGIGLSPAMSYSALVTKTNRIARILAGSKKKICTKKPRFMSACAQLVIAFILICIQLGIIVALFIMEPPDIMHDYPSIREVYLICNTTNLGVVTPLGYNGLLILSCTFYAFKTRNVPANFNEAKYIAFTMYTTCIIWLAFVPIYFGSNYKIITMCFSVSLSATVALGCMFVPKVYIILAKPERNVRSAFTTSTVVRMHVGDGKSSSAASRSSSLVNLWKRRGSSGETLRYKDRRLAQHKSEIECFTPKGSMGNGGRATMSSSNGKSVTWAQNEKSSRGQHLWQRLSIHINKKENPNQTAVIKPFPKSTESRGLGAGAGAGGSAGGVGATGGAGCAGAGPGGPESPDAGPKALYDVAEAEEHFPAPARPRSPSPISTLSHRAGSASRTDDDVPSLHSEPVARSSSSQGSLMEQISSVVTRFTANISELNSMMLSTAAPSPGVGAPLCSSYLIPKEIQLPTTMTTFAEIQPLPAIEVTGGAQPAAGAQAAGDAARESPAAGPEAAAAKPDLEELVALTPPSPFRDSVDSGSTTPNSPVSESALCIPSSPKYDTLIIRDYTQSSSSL

| remaining activity at 30 µM (% Glu max at 30 μM) [%] | IC50 [nM] | Compound | remaining activity at 30 µM [%] |
| --- | --- | --- | --- |
| 2 | 123 | Cc1cc(-c2cncc(F)c2)cc(-c2nc(-c3ccc(F)cn3)no2)n1 [Compound 90, 5-(5-fluoro-6′-methyl-[3,4′-bipyridin]-2′-yl)-3-(5-fluoropyridin-2-yl)-1,2,4-oxadiazole] |  |
| 2 | 298 | COc1ccncc1-c1cc(-c2nnc(-c3ccc(F)cn3)o2)nc(C)c1F [Compound 73, 2-(5′-fluoro-4-methoxy-6′-methyl-[3,4′-bipyridin]-2′-yl)-5-(5-fluoropyridin-2-yl)-1,3,4-oxadiazole] |  |
| 18 | > 10000 | Cc1nc(-c2noc(-c3cscn3)n2)cc(-c2cncc(F)c2)c1F [Compound 52, 3-(5,5′-difluoro-6′-methyl-[3,4′-bipyridin]-2′-yl)-5-(thiazol-4-yl)-1,2,4-oxadiazole] |  |
| 2 | 207 | [2H]C([2H])([2H])c1cc(-c2cncc(F)c2)cc(-c2noc(-c3ccc(F)cn3)n2)n1 [Compound 35, 3-(5-fluoro-6′-(methyl-d3)-[3,4′-bipyridin]-2′-yl)-5-(5-fluoropyridin-2-yl)-1,2,4-oxadiazole] |  |
| 2 | 190 | Cc1cc(-c2cncc(F)c2)cc(-c2noc(-c3ccc(F)cn3)n2)n1 [Compound 55, 3-(5-fluoro-6′-methyl-[3,4′-bipyridin]-2′-yl)-5-(5-fluoropyridin-2-yl)-1,2,4-oxadiazole] |  |
| 13 | 4290 | Cc1cncc(-c2nc(-c3cc(-c4cnccc4C)c(F)c(C)n3)no2)c1 [Compound 87, 3-(5′-fluoro-4,6′-dimethyl-[3,4′-bipyridin]-2′-yl)-5-(5-methylpyridin-3-yl)-1,2,4-oxadiazole] |  |
| 36 | > 10000 | Cc1ccn(Cc2nc(-c3cc(-c4cnccc4C)c(F)c(C)n3)no2)n1 [Compound 65, 3-(5′-fluoro-4,6′-dimethyl-[3,4′-bipyridin]-2′-yl)-5-((3-methyl-1H-pyrazol-1-yl)methyl)-1,2,4-oxadiazole] |  |
| 2 | 304 | Cc1nc(-c2noc(-c3ccc(F)cn3)n2)cc(-c2cncc(F)c2C)c1F [Compound 41, 3-(5,5′-difluoro-4,6′-dimethyl-[3,4′-bipyridin]-2′-yl)-5-(5-fluoropyridin-2-yl)-1,2,4-oxadiazole] |  |
| 6 | 125 | Fc1ccc(-c2nc(-c3cc(-c4cncc(F)c4)cc(C(F)F)n3)no2)nc1 [Compound 61, 3-(6′-(difluoromethyl)-5-fluoro-[3,4′-bipyridin]-2′-yl)-5-(5-fluoropyridin-2-yl)-1,2,4-oxadiazole] |  |
| 9 | 5750 | COc1ncc(-c2cc(-c3nnc(-c4ccc(F)cn4)o3)nc(C)c2F)cc1F [Compound 76, 2-(5,5′-difluoro-6-methoxy-6′-methyl-[3,4′-bipyridin]-2′-yl)-5-(5-fluoropyridin-2-yl)-1,3,4-oxadiazole] |  |
| 2 | 744 | Cc1ccncc1-c1cc(-c2noc(-c3cc(F)ccn3)n2)ncc1F [Compound 3, 3-(5′-fluoro-4-methyl-[3,4′-bipyridin]-2′-yl)-5-(4-fluoropyridin-2-yl)-1,2,4-oxadiazole] |  |
| 2 | 1530 | Cc1ccc(-c2cc(-c3nnc(-c4ccc(F)cn4)o3)nc(C)c2F)c(C)n1 [Compound 111, 2-(5′-fluoro-2,6,6′-trimethyl-[3,4′-bipyridin]-2′-yl)-5-(5-fluoropyridin-2-yl)-1,3,4-oxadiazole] |  |
| 3 | 757 | Cc1nc(-c2noc(-c3ccc(F)cn3)n2)cc(-c2cncc(C#N)c2)c1F [Compound 68, 3′-fluoro-6′-(5-(5-fluoropyridin-2-yl)-1,2,4-oxadiazol-3-yl)-2′-methyl-[3,4′-bipyridine]-5-carbonitrile] |  |
| 2 | 46 | Cc1cc(O[C@@H]2CCOC2)cc(-c2noc(-c3ccccn3)n2)n1 [Compound 113, (R)-3-(6-methyl-4-((tetrahydrofuran-3-yl)oxy)pyridin-2-yl)-5-(pyridin-2-yl)-1,2,4-oxadiazole] |  |
| 3 | 1090 | Cc1cccc(-c2nc(-c3cc(-c4cnccc4C)c(F)c(C)n3)no2)n1 [Compound 22, 3-(5′-fluoro-4,6′-dimethyl-[3,4′-bipyridin]-2′-yl)-5-(6-methylpyridin-2-yl)-1,2,4-oxadiazole] |  |
| 9 | 1890 | Cc1cc(F)nc(-c2cc(-c3noc(-c4ccc(F)cn4)n3)nc(C)c2F)c1 [Compound 66, 3-(5′,6-difluoro-4,6′-dimethyl-[2,4′-bipyridin]-2′-yl)-5-(5-fluoropyridin-2-yl)-1,2,4-oxadiazole] |  |
| 3 | 677 | Cc1nc(-c2nc(-c3ccc(F)cc3)no2)cc(-c2cncc(F)c2)c1F [Compound 46, 5-(5,5′-difluoro-6′-methyl-[3,4′-bipyridin]-2′-yl)-3-(4-fluorophenyl)-1,2,4-oxadiazole] |  |
| 9 | 1020 | Cc1nc(-c2noc(-c3ccc(F)cn3)n2)cc(-c2cncc(C(F)(F)F)c2)c1F [Compound 33, 3-(5′-fluoro-6′-methyl-5-(trifluoromethyl)-[3,4′-bipyridin]-2′-yl)-5-(5-fluoropyridin-2-yl)-1,2,4-oxadiazole] |  |
| 2 | 124 | Cc1ccncc1-c1cc(-c2nc(-c3ccc(F)cn3)no2)nc(C)c1F [Compound 8, 5-(5′-fluoro-4,6′-dimethyl-[3,4′-bipyridin]-2′-yl)-3-(5-fluoropyridin-2-yl)-1,2,4-oxadiazole] |  |
| 2 | 97 | Cc1csc(-c2nc(-c3cc(-c4cnccc4C)c(F)c(C)n3)no2)n1 [Compound 15, 3-(5′-fluoro-4,6′-dimethyl-[3,4′-bipyridin]-2′-yl)-5-(4-methylthiazol-2-yl)-1,2,4-oxadiazole] |  |
| 2 | 66 | COc1cc(C#N)cc(-c2cc(-c3nnc(-c4ccc(F)cn4)o3)nc(C)c2F)c1 [Compound 109, 3-(3-fluoro-6-(5-(5-fluoropyridin-2-yl)-1,3,4-oxadiazol-2-yl)-2-methylpyridin-4-yl)-5-methoxybenzonitrile] |  |
| 2 | 159 | Cc1nc(-c2noc(-c3ccc(F)cn3)n2)cc(-c2cnn(C(F)F)c2)c1F [Compound 7, 3-(4-(1-(difluoromethyl)-1H-pyrazol-4-yl)-5-fluoro-6-methylpyridin-2-yl)-5-(5-fluoropyridin-2-yl)-1,2,4-oxadiazole] |  |
| 2 | 705 | Cc1ccncc1-c1cc(-c2nnc(-c3cccc(F)c3)o2)nc(C)c1F [Compound 40, 2-(5′-fluoro-4,6′-dimethyl-[3,4′-bipyridin]-2′-yl)-5-(3-fluorophenyl)-1,3,4-oxadiazole] |  |
| 2 | 117 | Cc1ccncc1-c1cc(-c2noc(-c3cccc(Cl)c3)n2)nc(C)c1F [Compound 23, 5-(3-chlorophenyl)-3-(5′-fluoro-4,6′-dimethyl-[3,4′-bipyridin]-2′-yl)-1,2,4-oxadiazole] |  |
| 34 | 1560 | Cc1nc(-c2noc(-c3cccnc3)n2)cc(-c2cncc(F)c2)c1F [Compound 50, 3-(5,5′-difluoro-6′-methyl-[3,4′-bipyridin]-2′-yl)-5-(pyridin-3-yl)-1,2,4-oxadiazole] |  |

| Compound | remaining activity at 30 µM (% Glu max at 30 μM) [%] | IC50 [nM] | remaining activity at 30 µM [%] |
| --- | --- | --- | --- |
| Cc1nc(-c2nnc(-c3ccc(F)cc3)o2)cc(-c2cncc(F)c2)c1F [Compound 82, 2-(5,5′-difluoro-6′-methyl-[3,4′-bipyridin]-2′-yl)-5-(4-fluorophenyl)-1,3,4-oxadiazole] |  | 778 | 2 |
